Patent publication US20060135393A1, “Mild cleansing composition” (KPSS-Kao Professional Salon Services GmbH, priority 2004, published 2006)

System: male and female volunteers backs
Assay: Occlusive multiple patch test for skin irritation potential (Hayes Chamber)
Type: in vivo, human
Conditions: shampoos diluted to 10% by weight in tap water; 25 μl per chamber; 3 applications, 72 hours total skin contact; visual scoring by dermatologist, 0 (no apparent cutaneous involvement) to 4 (severe erythema with edema)
Experimental: The above composition and the comparative compositions (see below) were tested for their skin irritation potential in an occlusive patch test using male and female volunteers backs aging 45+−14 years using Hayes Chamber with 25 μl volume. In detail, the shampoo compositions to be tested were diluted to a shampoo concentration of 10% by weight in tap water and homogeneously mixed. Using a laboratory calibrated pipette 25 μl of the solutions were filled into the chambers and the samples were patched onto the backs of the volunteers. The application was repeated 3 times (the duration of skin contact in total is 72 hours). After removal of the last patch (after 72 hrs), the application areas were evaluated visually by a dermatologist. The evaluation scores were as follows: [table] Such kind of tests are offered by several dermatological institutes or dermatologists having private clinics and the tests of the present invention were as well carried out in a dermatological institutes in Germany.

## CCCCCCCCCCCCOS(=O)(=O)[O-].[Na+] [1% SDS* solution, sodium dodecyl sulfate]
  Irritation score: 1.99
